PubChem BioAssay (NCI)
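Grown in 96-well plates, cells were treated for 48 hours with each compound at five concentrations. Insufficient inhibition: endpoint recorded as highest concentration tested. Definition used: TGI = concentration required for complete inhibition of growth.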

How the values were obtained:
Test in all cases: inhibition of tumour cell growth, NCI panel, 48 h
[1] = test system: 786-0 renal
[2] = test system: A498 renal
[3] = test system: A549 NSCLC
[4] = test system: ACHN renal
[5] = test system: BT-549 breast
[6] = test system: CAKI-1 renal
[7] = test system: CCRF-CEM leukemia
[8] = test system: COLO 205 colon
[9] = test system: DU-145 prostate
[10] = test system: EKVX NSCLC
[11] = test system: HCC-2998 colon
[12] = test system: HCT-116 colon
[13] = test system: HCT-15 colon
[14] = test system: HL-60(TB) leukemia
[15] = test system: HOP-62 NSCLC
[16] = test system: HOP-92 NSCLC
[17] = test system: HS 578T breast
[18] = test system: HT29 colon
[19] = test system: IGROV1 ovarian
[20] = test system: K-562 leukemia
[21] = test system: KM12 colon
[22] = test system: LOX IMVI melanoma
[23] = test system: M14 melanoma
[24] = test system: MALME-3M melanoma
[25] = test system: MCF7 breast
[26] = test system: MDA-MB-231 breast
[27] = test system: MDA-MB-435
[28] = test system: MDA-N
[29] = test system: MOLT-4 leukemia
[30] = test system: NCI-H226 lung
[31] = test system: NCI-H23 lung
[32] = test system: NCI-H460 lung
[33] = test system: NCI-H522 lung
[34] = test system: NCI/ADR-RES ovarian
[35] = test system: OVCAR-3 ovarian
[36] = test system: OVCAR-4 ovarian
[37] = test system: OVCAR-5 ovarian
[38] = test system: OVCAR-8 ovarian
[39] = test system: PC-3 prostate
[40] = test system: RPMI-8226 leukemia
[41] = test system: RXF 393 renal
[42] = test system: SF-268 CNS
[43] = test system: SF-295 CNS
[44] = test system: SF-539 CNS
[45] = test system: SK-MEL-2 melanoma
[46] = test system: SK-MEL-28 melanoma
[47] = test system: SK-MEL-5 melanoma
[48] = test system: SK-OV-3 ovarian
[49] = test system: SN12C renal
[50] = test system: SNB-19 CNS
[51] = test system: SNB-75 CNS
[52] = test system: SR leukemia
[53] = test system: SW-620 colon
[54] = test system: T-47D breast
[55] = test system: TK-10 renal
[56] = test system: U251 CNS
[57] = test system: UACC-257 melanoma
[58] = test system: UACC-62 melanoma
[59] = test system: UO-31 renal
[60] = test system: DLD-1 colon
[61] = test system: DMS 273 small cell lung
[62] = test system: HOP-18 NSCLC
[63] = test system: KM20L2 colon
[64] = test system: LXFL 529 NSCLC
[65] = test system: M19-MEL melanoma

O=C(NN1CCCCC1)c1cc2cc(CCl)ccc2oc1=O
TGI [1]: 32 µM | TGI [2]: > 100 µM | TGI [3]: 48.5 µM | TGI [4]: > 100 µM | TGI [5]: 38 µM | TGI [6]: 33.3 µM | TGI [7]: 67.5 µM | TGI [8]: 36 µM | TGI [9]: > 100 µM | TGI [10]: 27.4 µM | TGI [11]: 27.1 µM | TGI [12]: 38 µM | TGI [13]: 39.9 µM | TGI [14]: 37.7 µM | TGI [15]: 40.5 µM | TGI [16]: 22.9 µM | TGI [17]: 36.4 µM | TGI [18]: 33 µM | TGI [19]: 42.7 µM | TGI [20]: 48.1 µM | TGI [21]: 49.4 µM | TGI [22]: 35.9 µM | TGI [23]: 49.4 µM | TGI [24]: 24.8 µM | TGI [25]: > 100 µM | TGI [26]: 38.6 µM | TGI [27]: 42.1 µM | TGI [28]: 33.4 µM | TGI [29]: 65.5 µM | TGI [30]: 45.3 µM | TGI [31]: 32.5 µM | TGI [32]: 31.1 µM | TGI [33]: 22.7 µM | TGI [34]: 54.2 µM | TGI [35]: 39.3 µM | TGI [36]: 36.4 µM | TGI [37]: 31.8 µM | TGI [38]: 54.8 µM | TGI [39]: 30.4 µM | TGI [40]: 59 µM | TGI [41]: 34.4 µM | TGI [42]: 32.9 µM | TGI [43]: 42 µM | TGI [44]: > 100 µM | TGI [45]: 28.9 µM | TGI [46]: > 100 µM | TGI [47]: 33.7 µM | TGI [48]: 42.6 µM | TGI [49]: 38.7 µM | TGI [50]: 65.2 µM | TGI [51]: 34.9 µM | TGI [52]: 67.8 µM | TGI [53]: 60.7 µM | TGI [54]: 48.7 µM | TGI [55]: 35.5 µM | TGI [56]: 31.6 µM | TGI [57]: 59.1 µM | TGI [58]: 85.8 µM | TGI [59]: 35.3 µM

C[C@@]12[Se]c3ccccc3[C@]1(C)[Se]c1ccccc12
TGI [1]: > 100 µM | TGI [4]: > 100 µM | TGI [6]: > 100 µM | TGI [7]: > 100 µM | TGI [8]: > 100 µM | TGI [60]: > 100 µM | TGI [61]: > 100 µM | TGI [10]: > 100 µM | TGI [11]: > 100 µM | TGI [12]: > 100 µM | TGI [14]: 8.4 µM | TGI [62]: > 100 µM | TGI [16]: > 100 µM | TGI [18]: > 100 µM | TGI [20]: > 100 µM | TGI [21]: > 100 µM | TGI [63]: > 100 µM | TGI [22]: > 100 µM | TGI [64]: > 100 µM | TGI [23]: > 100 µM | TGI [65]: > 100 µM | TGI [24]: > 100 µM | TGI [30]: > 100 µM | TGI [31]: > 100 µM | TGI [33]: > 100 µM | TGI [35]: > 100 µM | TGI [36]: > 100 µM | TGI [37]: > 100 µM | TGI [38]: > 100 µM | TGI [40]: > 100 µM | TGI [42]: > 100 µM | TGI [43]: > 100 µM | TGI [45]: > 100 µM | TGI [47]: > 100 µM | TGI [49]: > 100 µM | TGI [53]: > 100 µM | TGI [55]: > 100 µM | TGI [56]: > 100 µM | TGI [58]: 7.18 µM
